Target: T1, Recombinant human BRD4 containing dual bromodomains (BRD4-BD12 (1-477)) (Homo sapiens, UniProt O60885)
T1 construct: Recombinant human BRD4 containing dual bromodomains (BRD4-BD12 (1-477)); made in house; host or cells: E. coli BL21-CodonPlus (DE3), modified pET vector
Assay: BRD4 Alphascreen binding assay
How it was run: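 AlphaScreen proximity between Ni-chelate-bound BRD4-BD12 (1-477) and streptavidin-captured H4 K5/K8/K12/K16-acetyl peptide measured after 1 h room-temperature compound incubation and 30 min with 7.5 μg/ml beads. Buffer: 50 mM HEPES pH 7.5, 50 mM NaCl, 0.01% BSA, 0.01% Triton X-100; data plate-normalized and four-parameter fit for IC50.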

With `Cc1noc(C)c1-c1cnc2c(c1)c(-c1ccc(C(=O)O)cc1OC1CC1)cn2[C@@H](C)c1ccccn1` [P-0170, (S)-3-cyclopropoxy-4-(5-(3,5-dimethylisoxazol-4-yl)-1-(1-(pyridin-2-yl)ethyl)-1H-pyrrolo[2,3-b]pyridin-3-yl)benzoic acid] as the molecule, how does the IC50 read?
The IC50 was 8 to 1000 µM.

How did the IC50 turn out when `Cc1noc(C)c1-c1cnc2c(c1)c(-c1ccc(C(=O)O)cc1)cn2C(C)c1ccc(F)cn1` (stereo not drawn) [P-0014, 4-(5-(3,5-dimethylisoxazol-4-yl)-1-(1-(5-fluoropyridin-2-yl)ethyl)-1H-pyrrolo[2,3-b]pyridin-3-yl)benzoic acid] was run?
The IC50 was 8 to 1000 µM.

How did the IC50 turn out when `Cc1ccccc1-n1cc(-c2ccc(C(=O)O)cc2OC(F)(F)F)c2cc(-c3c(C)noc3C)cnc21` [P-0231, 4-(5-(3,5-dimethylisoxazol-4-yl)-1-(o-tolyl)-1H-pyrrolo[2,3-b]pyridin-3-yl)-3-(trifluoromethoxy)benzoic acid] was run?
Its IC50 is 8 to 1000 µM.

How did the IC50 turn out when `CCOc1cc(C(=O)O)cc(OCC)c1-n1cc(-c2ccc(OC)cc2F)c2ncc(-c3c(C)noc3C)cc21` [P-0194, 4-(6-(3,5-dimethylisoxazol-4-yl)-3-(2-fluoro-4-methoxyphenyl)-1H-pyrrolo[3,2-b]pyridin-1-yl)-3,5-diethoxybenzoic acid] was run?
Its IC50 is 1 to 8 µM.

How did the IC50 turn out when `Cc1noc(C)c1-c1cnc2c(c1)c(-c1ccc(C(=O)O)cc1OC(F)(F)F)cn2-c1cc(F)ccc1F` [P-0233, 4-(1-(2,5-difluorophenyl)-5-(3,5-dimethylisoxazol-4-yl)-1H-pyrrolo[2,3-b]pyridin-3-yl)-3-(trifluoromethoxy)benzoic acid] was run?
Its IC50 is 1 to 8 µM.

How did the IC50 turn out when `Cc1noc(C)c1-c1cnc2c(c1)c(-c1ccc(C(=O)O)cc1OC(F)(F)F)cn2-c1ncccc1C#N` [P-0215, 4-(1-(3-cyanopyridin-2-yl)-5-(3,5-dimethylisoxazol-4-yl)-1H-pyrrolo[2,3-b]pyridin-3-yl)-3-(trifluoromethoxy)benzoic acid] was run?
Its IC50 is 1 to 8 µM.

With `Cc1noc(C)c1-c1cnc2c(c1)c(-c1ccc(C(=O)O)cc1OC(F)(F)F)cn2-c1ccccc1` [P-0188, 4-(5-(3,5-dimethylisoxazol-4-yl)-1-phenyl-1H-pyrrolo[2,3-b]pyridin-3-yl)-3-(trifluoromethoxy)benzoic acid] as the molecule, how does the IC50 read?
The IC50 was 1 to 8 µM.

`Cc1noc(C)c1-c1cnc2c(c1)c(-c1ccc(C(=O)O)cc1OC1CCC1)cn2[C@@H](C)c1ccccn1` [P-0179, (S)-3-cyclobutoxy-4-(5-(3,5-dimethylisoxazol-4-yl)-1-(1-(pyridin-2-yl)ethyl)-1H-pyrrolo[2,3-b]pyridin-3-yl)benzoic acid] was tested. Which IC50 did it give?
Its IC50 is 8 to 1000 µM.

`Cc1noc(C)c1-c1cnc2c(-c3ccc(C(=O)O)c(F)c3)c(C(F)(F)F)n([C@@H](C)c3ccccn3)c2c1` [P-0242, (S)-4-(6-(3,5-dimethylisoxazol-4-yl)-1-(1-(pyridin-2-yl)ethyl)-2-(trifluoromethyl)-1H-pyrrolo[3,2-b]pyridin-3-yl)-2-fluorobenzoic acid] was tested. Which IC50 did it give?
The IC50 was 8 to 1000 µM.

How did the IC50 turn out when `Cc1noc(C)c1-c1cnc2c(c1)c(-c1ccc(C(=O)O)cc1OC(F)(F)F)cn2S(=O)(=O)C1CC1` [P-0202, 4-(1-(cyclopropylsulfonyl)-5-(3,5-dimethylisoxazol-4-yl)-1H-pyrrolo[2,3-b]pyridin-3-yl)-3-(trifluoromethoxy)benzoic acid] was run?
The IC50 was 1 to 8 µM.

`CCOc1cc(C(=O)O)cc(OCC)c1-n1cc(-c2ccc(F)cc2)c2ncc(-c3c(C)noc3C)cc21` [P-0184, 4-(6-(3,5-dimethylisoxazol-4-yl)-3-(4-fluorophenyl)-1H-pyrrolo[3,2-b]pyridin-1-yl)-3,5-diethoxybenzoic acid] was tested. Which IC50 did it give?
The IC50 was 1 to 8 µM.

For `CCOc1cc(C(=O)O)cc(OCC)c1-n1cc(C2=CCC(F)(F)CC2)c2ncc(-c3c(C)noc3C)cc21` [P-0208, 4-(3-(4,4-difluorocyclohex-1-en-1-yl)-6-(3,5-dimethylisoxazol-4-yl)-1H-pyrrolo[3,2-b]pyridin-1-yl)-3,5-diethoxybenzoic acid], which IC50 is on record?
The IC50 was 1 to 8 µM.
